Source: ChEMBL document CHEMBL2163346, “Acetylcholinesterase inhibitors from the leaves of Macaranga kurzii” (J Nat Prod, 2012)
pIC50: −log10 of the molar value. Active and inactive are the calls of the source. The calls are words filed in the database; no cut-off is given here.

Tests used:
[1] = tested on: KB; assay: Cytotoxicity against human KB cells at 20 uM after 72 hrs by neutral red staining; type: functional, cell-based
[2] = target: Acetylcholinesterase (Electrophorus electricus, UniProt O42275)
Description: Inhibition of Electrophorus electricus C2888 AChE using acetylthiocholine iodide as substrate by Ellman's spectroscopic method

[3] = target: Acetylcholinesterase (Electrophorus electricus) (UniProt O42275); settings: C2888, 50 uM
Description: Inhibition of Electrophorus electricus C2888 AChE using acetylthiocholine iodide as substrate at 50 uM by Ellman's spectroscopic method

[4] = tested on: KB; assay: Cytotoxicity against human KB cells after 72 hrs by neutral red staining; type: functional, cell-based

Sequence of Acetylcholinesterase (O42275 whole entry): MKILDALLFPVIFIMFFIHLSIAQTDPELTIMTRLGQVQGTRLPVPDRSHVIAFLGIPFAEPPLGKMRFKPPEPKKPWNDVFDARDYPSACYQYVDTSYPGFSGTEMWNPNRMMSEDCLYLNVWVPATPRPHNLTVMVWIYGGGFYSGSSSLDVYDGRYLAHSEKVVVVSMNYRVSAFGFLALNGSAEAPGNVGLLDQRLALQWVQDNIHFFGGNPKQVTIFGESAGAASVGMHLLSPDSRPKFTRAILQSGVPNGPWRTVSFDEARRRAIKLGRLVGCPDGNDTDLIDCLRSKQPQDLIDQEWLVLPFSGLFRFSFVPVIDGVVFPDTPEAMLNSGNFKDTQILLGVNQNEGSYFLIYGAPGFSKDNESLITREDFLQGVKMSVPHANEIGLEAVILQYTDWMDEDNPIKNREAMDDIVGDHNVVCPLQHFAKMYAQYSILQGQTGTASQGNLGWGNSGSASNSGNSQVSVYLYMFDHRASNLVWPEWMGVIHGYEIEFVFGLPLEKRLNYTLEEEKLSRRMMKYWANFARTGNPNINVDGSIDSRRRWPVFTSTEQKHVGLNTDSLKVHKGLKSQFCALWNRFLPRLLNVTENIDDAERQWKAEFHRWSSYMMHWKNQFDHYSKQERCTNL
Sequence of Acetylcholinesterase (Electrophorus electricus) (O42275 24-633 limits assumed): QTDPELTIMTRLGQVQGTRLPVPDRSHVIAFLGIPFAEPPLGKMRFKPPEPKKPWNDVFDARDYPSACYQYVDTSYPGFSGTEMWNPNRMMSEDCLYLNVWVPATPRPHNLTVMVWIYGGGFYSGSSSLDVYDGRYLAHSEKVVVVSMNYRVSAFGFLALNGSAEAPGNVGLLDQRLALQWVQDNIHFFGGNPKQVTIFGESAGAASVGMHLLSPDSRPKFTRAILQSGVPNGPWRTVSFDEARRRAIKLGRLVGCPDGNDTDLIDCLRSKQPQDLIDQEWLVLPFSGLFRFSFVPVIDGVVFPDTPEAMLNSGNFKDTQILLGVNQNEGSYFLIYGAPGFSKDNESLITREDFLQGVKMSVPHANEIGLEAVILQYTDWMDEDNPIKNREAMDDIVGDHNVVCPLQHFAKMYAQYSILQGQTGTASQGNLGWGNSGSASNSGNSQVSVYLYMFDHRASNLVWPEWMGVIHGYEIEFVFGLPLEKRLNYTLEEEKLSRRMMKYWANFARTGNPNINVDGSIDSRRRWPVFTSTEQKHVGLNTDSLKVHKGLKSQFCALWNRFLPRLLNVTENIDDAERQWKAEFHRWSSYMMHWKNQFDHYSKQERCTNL

SMILES	Activity [1]	pIC50 [2]	inhibition [3]	pIC50 [4]
CC(C)=CCc1c(O)cc(O)c2c1O[C@H](c1ccccc1)CC2=O [GLABRANIN]	inactive	4.64	–	–
CC1(C)C=Cc2c(cc3oc(-c4ccccc4)c(O)c(=O)c3c2O)O1 [MACAKURZIN C]	inactive	4.70	inactive	–
Oc1cc(/C=C/c2ccccc2)c2ccoc2c1 [FURANOKURZIN]	inactive	4.38	–	–
C=C(C)C(O)Cc1c(O)cc2oc(-c3ccccc3)c(O)c(=O)c2c1O (racemic)	inactive	–	–	–
CC(C)=CCc1c(O)cc2oc(-c3ccccc3)c(O)c(=O)c2c1O	–	–	–	5.00
COc1cc(O)c2c(=O)c(O)c(-c3ccccc3)oc2c1	inactive	–	–	–
CC(C)=CCc1c(O)cc(O)c2c(=O)c(O)c(-c3ccccc3)oc12	inactive	–	–	–
CC(C)=CCc1c(O)cc2c(c1O)C(=O)C[C@@H](c1ccccc1)O2	inactive	4.74	–	–
CC1(C)Oc2cc3oc(-c4ccccc4)c(O)c(=O)c3c(O)c2CC1O (racemic)	–	–	–	4.89
O=c1c(O)c(-c2ccccc2)oc2cc(O)cc(O)c12	inactive	–	–	–
COc1cc(/C=C/c2ccccc2)cc(OC)c1 [3,5-O-DIMETHYLPINOSYLVIN]	inactive	5.05	–	–
COc1cc(/C=C/c2ccccc2)c(CC=C(C)C)c(OC)c1	–	4.72	–	5.40
COc1cc(/C=C\c2ccccc2)cc(OC)c1	inactive	–	–	–
